# Values of other authors as cited in US20040258778A1, “Lactation cessation and breast engorgement compositions and method of use” (priority 2003, published 2004).
# Tested on: lactating women
smiles,measurement,setting,value
CC(C)C[C@H]1C(=O)N2CCC[C@H]2[C@]2(O)O[C@](NC(=O)[C@@H]3C=C4c5cccc6[nH]c(Br)c(c56)C[C@H]4N(C)C3)(C(C)C)C(=O)N12 [bromocriptine],"rebound engorgement, share of the time","after a two-week course of treatment ends, according to the official labeling",up to 40%
same,very serious side effects reported,"use to suppress lactation (Iffy, 1998)","strokes, seizures (convulsions), intracranial bleeding, cerebral edema, and heart attacks"
